13 compounds from patent US11878973B2, “Bicyclic compounds and their uses” (NOVARTIS AG, priority 2021, dated 2024) can be followed below.

The structures appear in SMILES notation. Where two headings read alike, the source gives them in different places.

For experiment [1], the system named is DLD1-WRN-KO cells. The experiment in a line: Proliferation assay DLD1-WRN-KO (CellTiterGlo, 96 hours; off-target effects). (In ATP-based viability assays light output follows the ATP content of the culture.)
Experiment [2] has as its system SW48 cells. The experiment in a line: Proliferation assay SW48 (CellTiterGlo, 96 hours).
Description: The WRN-knockdown insensitive colon carcinoma cell line DLD-1 (RRID: CVCL_0248) was obtained from the Korean Cell Line Bank (KCLB), and used to generate a derivative in which the endogenous WRN gene copies were knocked out by CRISPR-mediated editing using standard CRISPR methods. The resulting cell line, DLD1-WRN—KO, was used to assess potential off-target compound effects.
All cells were maintained at 37° C. in a humidified 5% CO2 incubator.
For data analysis, the assay background signal that was determined in wells containing medium, but no cells, was subtracted from all other data points prior to further calculations. The extent of growth inhibition and potential cell kill was assessed by comparing the ATP levels (measured using CellTiterGlo, Promega) in compound-treated cells with those present at the time of compound addition. […] 100%, 0% and −100% signify absence of growth inhibition, growth stasis, and complete cell kill, respectively. Compound concentrations leading to half-maximal growth inhibition (G150) and residual cell viability at the highest tested compound concentration (Data (cmax), expressed in percent) were routinely calculated. Data analysis can also be carried out using commercially available software designed to derive IC50 values using 4-parameter fits (e.g. GraphPad Prism, XL fit). The reported GI50 values are the geometrical means of at least 2 independent replicates.
Experiment [3] addresses WRN helicase (Homo sapiens (Human), UniProt Q14191). The experiment in a line: In vitro enzymatic activity assay on WRN helicase (DNA dependent ATPase assay, ADP-Glo). The class given is biochemical. An excerpt: An ATPase assay was set up to measure the DNA dependent ATP hydrolysis activity of WRN helicase. This assay was used also to assess the inhibition properties of compounds of the invention on DNA dependent WRN ATPase activity.
The core helicase motif of the WRN protein (aa N517-P1238) was produced for this assay (protein production as described above). […] The ADP-Glo assay kit (Promega, Madison, WI) allowing the quantification of ADP produced in ATP hydrolysis reactions was used for setting up this assay.
Time course experiments were first performed in order to determine the best enzymatic assay conditions (including buffer conditions, reaction time and concentrations of protein, ATP and DNA substrates). A typical reaction consists of 10 nM WRN protein, 0.2 nM FLAP26, and 300 micromolar ATP in the following assay buffer: 30 mM Tris pH7.5, 2 mM MgCl2, 0.02% BSA, 50 mM NaCl, 0.1% pluronic F127 prepared in DNAse free water. To evaluate the inhibition properties of compounds of the invention, serial dilutions were prepared in DMSO (10 half log dilutions from a 10 mM DMSO solution). […] The reaction was started by addition of 2.5 microliters of FLAP26 at 0.4 nM and incubated for 30 minutes at room temperature. The reaction was stopped with the addition of 5 microliters of the first ADP-Glo reagent and incubated for one hour to remove the excess amount of ATP. Afterwards, 10 microliters of ATP detection reagent was added and incubated for an additional hour before reading. Luminescence output was recorded using Tecan 1000 reader, with 5 minutes delay before reading. Each concentration of compound was tested in duplicates in the assay plate.
Following normalization of activity values for the wells to % inhibition (% inhibition=[(high control-sample)/(high control-low control)]×100), IC50 fitting was carried out from the duplicate determinations present on each plate according to [4]. Data analysis can also be carried out using commercially available software designed to derive IC50 values using 4-parameter fits (e.g. GraphPad Prism, XL fit). The reported IC50 values are the geometrical means of at least 2 independent replicates.
(In ADP-Glo the light output rises with the ADP produced.)

Setting [4] is: read-out: Proliferation Assay DLD1-WRN-KO (GI50), DLD1-WRN-KO cell line, geometric means of at least 2 determinations.
The mark [5] stands for this setting: read-out: Proliferation Assay SW48 (GI50), SW48 cell line, geometric means of at least 2 determinations.
[6] abbreviates: geometric means of at least 2 determinations, read-out: WRN ATPase Activity (IC50).
[7] abbreviates: Homo sapiens, read-out: Proliferation Assay DLD1-WRN-KO (GI50).
[8] abbreviates: Homo sapiens, SW48, read-out: Proliferation Assay SW48 (GI50).

Sequence of WRN helicase (Q14191 517-1238): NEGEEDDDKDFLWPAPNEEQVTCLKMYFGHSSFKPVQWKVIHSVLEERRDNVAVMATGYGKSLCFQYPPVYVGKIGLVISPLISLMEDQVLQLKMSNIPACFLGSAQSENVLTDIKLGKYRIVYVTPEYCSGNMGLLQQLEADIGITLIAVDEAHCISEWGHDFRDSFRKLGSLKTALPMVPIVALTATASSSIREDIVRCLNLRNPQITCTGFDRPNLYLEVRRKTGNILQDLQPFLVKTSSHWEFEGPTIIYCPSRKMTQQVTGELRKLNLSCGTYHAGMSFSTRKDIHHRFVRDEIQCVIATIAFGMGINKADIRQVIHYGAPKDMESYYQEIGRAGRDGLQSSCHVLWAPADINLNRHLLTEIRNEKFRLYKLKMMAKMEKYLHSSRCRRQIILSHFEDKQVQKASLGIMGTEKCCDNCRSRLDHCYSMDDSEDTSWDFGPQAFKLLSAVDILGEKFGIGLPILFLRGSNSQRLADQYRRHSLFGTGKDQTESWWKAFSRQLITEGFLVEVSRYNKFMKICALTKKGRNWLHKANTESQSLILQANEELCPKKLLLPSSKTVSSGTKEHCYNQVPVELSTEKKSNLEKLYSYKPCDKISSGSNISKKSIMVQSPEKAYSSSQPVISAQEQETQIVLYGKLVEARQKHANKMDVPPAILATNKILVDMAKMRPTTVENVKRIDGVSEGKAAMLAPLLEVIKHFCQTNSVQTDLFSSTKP

The term IC50 denotes the midpoint of a concentration-inhibition curve. For `CCc1c(N2CCN(C(=O)c3nccc(Cl)c3O)CC2)c(=O)n2nc(C3=CC[C@H](OC)CC3)nc2n1CC(=O)Nc1ccc(C(F)(F)F)nc1Cl` (single isomer, unassigned) [Example 24b], the GI50 is greater than 10000 nM in experiment [1] (setting [4]) and 50 nM in experiment [2] (setting [5]). In experiment [3] (setting [6]), the IC50 is 100 nM.
In the case of `CCc1c(N2CCN(C(=O)c3ncccc3O)CC2)c(=O)n2nc(C3=CC[C@H](OC)CC3)nc2n1CC(=O)Nc1ccc(C(F)(F)F)nc1Cl` (single isomer, unassigned) [Example 25a, ((R)—N-(2-chloro-6-(trifluoromethyl)pyridin-3-yl)-2-(5-ethyl-6-(4-(3-hydroxypicolinoyl)piperazin-1-yl)-2-(4-methoxycyclohex-1-en-1-yl)-7-oxo-[1,2,4]triazolo[1,5-a]pyrimidin-4(7H)-yl)acetamide) or ((S)—N-(2-chloro-6-(trifluoromethyl)pyridin-3-yl)-2-(5-ethyl-6-(4-(3-hydroxypicolinoyl)piperazin-1-yl)-2-(4-methoxycyclohex-1-en-1-yl)-7-oxo-[1,2,4]triazolo[1,5-a]pyrimidin-4(7H)-yl)acetamide)], the GI50 is greater than 10000 nM in experiment [1] (setting [4]) and 50 nM in experiment [2] (setting [5]). Moreover, the IC50 in experiment [3] (setting [6]) is 160 nM.
The like results for `CCc1c(N2CCN(C(=O)c3ncccc3O)CC2)c(=O)n2nc(C3=CC[C@H](OC)CC3)nc2n1CC(=O)Nc1ccc(C(F)(F)F)nc1Cl` (single isomer, unassigned) [Example 25b, ((R)—N-(2-chloro-6-(trifluoromethyl)pyridin-3-yl)-2-(5-ethyl-6-(4-(3-hydroxypicolinoyl)piperazin-1-yl)-2-(4-methoxycyclohex-1-en-1-yl)-7-oxo-[1,2,4]triazolo[1,5-a]pyrimidin-4(7H)-yl)acetamide) or ((S)—N-(2-chloro-6-(trifluoromethyl)pyridin-3-yl)-2-(5-ethyl-6-(4-(3-hydroxypicolinoyl)piperazin-1-yl)-2-(4-methoxycyclohex-1-en-1-yl)-7-oxo-[1,2,4]triazolo[1,5-a]pyrimidin-4(7H)-yl)acetamide)] were, in that order, greater than 10000 nM, 50 nM and 100 nM.
The like results for `CCc1c(N2CCN(C(=O)c3ncccc3O)CC2)c(=O)n2nc(C3=CC[C@H](OC)CC3)nc2n1CC(=O)Nc1ccc(C(F)(F)F)cc1C` (single isomer, unassigned) [Example 80a, ((R)-2-(5-ethyl-6-(4-(3-hydroxypicolinoyl)piperazin-1-yl)-2-(4-methoxycyclohex-1-en-1-yl)-7-oxo-[1,2,4]triazolo[1,5-a]pyrimidin-4(7H)-yl)-N-(2-methyl-4-(trifluoromethyl)phenyl)acetamide) or ((S)-2-(5-ethyl-6-(4-(3-hydroxypicolinoyl)piperazin-1-yl)-2-(4-methoxycyclohex-1-en-1-yl)-7-oxo-[1,2,4]triazolo[1,5-a]pyrimidin-4(7H)-yl)-N-(2-methyl-4-(trifluoromethyl)phenyl)acetamide)] were, in that order, greater than 10000 nM, 70 nM and 70 nM.
The like results for `CCc1c(N2CCN(C(=O)c3ncccc3O)CC2)c(=O)n2nc(C3=CC[C@H](OC)CC3)nc2n1CC(=O)Nc1ccc(C(F)(F)F)cc1C` (single isomer, unassigned) [Example 80b, ((R)-2-(5-ethyl-6-(4-(3-hydroxypicolinoyl)piperazin-1-yl)-2-(4-methoxycyclohex-1-en-1-yl)-7-oxo-[1,2,4]triazolo[1,5-a]pyrimidin-4(7H)-yl)-N-(2-methyl-4-(trifluoromethyl)phenyl)acetamide) or ((S)-2-(5-ethyl-6-(4-(3-hydroxypicolinoyl)piperazin-1-yl)-2-(4-methoxycyclohex-1-en-1-yl)-7-oxo-[1,2,4]triazolo[1,5-a]pyrimidin-4(7H)-yl)-N-(2-methyl-4-(trifluoromethyl)phenyl)acetamide)] were, in that order, greater than 10000 nM, 60 nM and 80 nM.
`CCc1c(N2CCN(C(=O)c3ncccc3O)CC2)c(=O)n2nc(C3=CC[C@H](OC)CC3)nc2n1CC(=O)Nc1ccc(C(F)(F)F)cc1` (single isomer, unassigned) [Example 81a, ((R)-2-(5-ethyl-6-(4-(3-hydroxypicolinoyl)piperazin-1-yl)-2-(4-methoxycyclohex-1-en-1-yl)-7-oxo-[1,2,4]triazolo[1,5-a]pyrimidin-4(7H)-yl)-N-(4-(trifluoromethyl)phenyl)acetamide or ((S)-2-(5-ethyl-6-(4-(3-hydroxypicolinoyl)piperazin-1-yl)-2-(4-methoxycyclohex-1-en-1-yl)-7-oxo-[1,2,4]triazolo[1,5-a]pyrimidin-4(7H)-yl)-N-(4-(trifluoromethyl)phenyl)acetamide]: the GI50 is greater than 10000 nM in experiment [1] (setting [4]) and 70 nM in experiment [2] (setting [5]). In addition, in experiment [3] (setting [6]), the IC50 was 40 nM.
The like results for `CCc1c(N2CCN(C(=O)c3ncccc3O)CC2)c(=O)n2nc(C3=CC[C@H](OC)CC3)nc2n1CC(=O)Nc1ccc(C(F)(F)F)cc1` (single isomer, unassigned) [Example 81b, ((R)-2-(5-ethyl-6-(4-(3-hydroxypicolinoyl)piperazin-1-yl)-2-(4-methoxycyclohex-1-en-1-yl)-7-oxo-[1,2,4]triazolo[1,5-a]pyrimidin-4(7H)-yl)-N-(4-(trifluoromethyl)phenyl)acetamide or ((S)-2-(5-ethyl-6-(4-(3-hydroxypicolinoyl)piperazin-1-yl)-2-(4-methoxycyclohex-1-en-1-yl)-7-oxo-[1,2,4]triazolo[1,5-a]pyrimidin-4(7H)-yl)-N-(4-(trifluoromethyl)phenyl)acetamide] were, in that order, greater than 10000 nM, 60 nM and 40 nM.
The like results for `CCc1c(N2CCN(C(=O)c3ncnc(C)c3O)[C@@H](C)[C@H]2C)c(=O)n2nc(C3=CCOCC3)nc2n1CC(=O)Nc1ccc(C(F)(F)F)cc1Cl` (single isomer, unassigned) [Example 121] were, in that order, greater than 10000 nM, 1740 nM and 860 nM.
The like results for `CCc1c(N2CCN(C(=O)c3ncnc(C)c3O)[C@H](C)[C@@H]2C)c(=O)n2nc(C3=CCOCC3)nc2n1CC(=O)Nc1ccc(C(F)(F)F)cc1Cl` (single isomer, unassigned) [Example 122] were, in that order, greater than 10000 nM, 100 nM and 150 nM.
Turning to `CCc1c(N2CCN(C(=O)c3ncnc(C)c3O)[C@@H]3CC[C@@H]32)c(=O)n2nc(C3=CCOCC3)nc2n1CC(=O)Nc1ccc(C(F)(F)F)cc1Cl` (single isomer, unassigned) [Example 131], the GI50 in experiment [1] (setting [4]) is greater than 10000 nM; in experiment [2] (setting [5]) it was 30 nM. Further, the IC50 in experiment [3] (setting [6]) stood at 110 nM.
The like results for `CCc1c(N2CCN(C(=O)c3ncnc(C)c3O)[C@@H]3CC[C@@H]32)c(=O)n2nc(C3=CCOCC3)nc2n1CC(=O)Nc1ccc(C(F)(F)F)cc1Cl` (single isomer, unassigned) [Example 132] were, in that order, greater than 10000 nM, 490 nM and 890 nM.
With `CCc1c(N2CCN(C(=O)c3nccc(Cl)c3O)CC2)c(=O)n2nc(N3CCOCC3)nc2n1CC(=O)Nc1ccc(C(F)(F)F)cc1Cl` [Example 1, 2-(6-(4-(4-chloro-3-hydroxypicolinoyl)piperazin-1-yl)-5-ethyl-2-morpholino-7-oxo-[1,2,4]triazolo[1,5-a]pyrimidin-4(7H)-yl)-N-(2-chloro-4-(trifluoromethyl)phenyl)acetamide], the GI50 was greater than 10000 nM in experiment [1] (Homo sapiens, DLD-1, read-out: proliferation GI50 in DLD1 WRN-KO); greater than 10000 nM in experiment [1] (setting [7]); 50 nM in experiment [2] (setting [8]); 50 nM in experiment [2] (Homo sapiens, SW48, read-out: proliferation GI50 in SW48, as stated in text). Also, the IC50 in experiment [3] (setting [6]) and in experiment [3] (read-out: WRN ATPase inhibition (IC50)) was 50 nM throughout.
In the case of `CCc1c(N2CCN(C(=O)c3ncccc3O)CC2)c(=O)n2nc(N3CCOCC3)nc2n1CC(=O)Nc1ccc(C(F)(F)F)cc1Cl` [Example 2, N-(2-chloro-4-(trifluoromethyl)phenyl)-2-(5-ethyl-6-(4-(3-hydroxypicolinoyl)piperazin-1-yl)-2-morpholino-7-oxo-[1,2,4]triazolo[1,5-a]pyrimidin-4(7H)-yl)acetamide], the GI50 in experiment [1] (setting [7]) is greater than 10000 nM; in experiment [2] (setting [8]) it was 190 nM. Further, the IC50 in experiment [3] (setting [6]) is 80 nM.
